Consider one compound from patent publication US20100261682A1, “Method and Means for the Treatment of Cachexia” (Bioneris AB, priority 2007, published 2010).

The subject of one assay is caspase 8. Description: Caspase 8 activity in gastrocnemius muscle. Type of assay: in vivo, NMRI mice. The settings on record: 40 mg/kg; still significantly higher than in non-tumour-bearing animals. The protocol:
(§1) Administration of alpha-trinositol. Mice (n=6) bearing the MAC16 tumour were treated with AT (40 mg/kg) s.c., 3 times per day, for 5 days, while a control group received PBS. Protein synthesis and degradation were determined by the incorporation and release of L-[2,6-^3H]phenylalanine, as described in Smith et al., Cancer Res., 2005; 65:277-83. On the fourth day of treatment half of the group administered 0.4 mmol/L L-[2,6-^3H]phenylalanine in PBS (100 μl) by i.p. administration.
(§2) Determination of Caspase activity. The activity of caspase 3 was determined by the release of 7-amino-4-methylcoumarin (AMC) from the specific substrate AcDEVD-AMC in the presence or absence of the caspase 3 inhibitor AcDEVD-CHO. […] The supernatant (50 μg protein) was incubated with the caspase 3 substrate for 1 h and the increase in fluorescence due to AMC was determined at an excilation wavelength of 370 nm and an emission wavelength of 430 nm. […] The increase in fluorescence due to the release of 7-amino-4-trifluoro-methylcoumarin (AFC) was measured with an excitation wavelength of 400 nm and an emission of 505 nm.

A further assay concerns caspase 3. Description: Caspase 3 activity in gastrocnemius muscle. Type of assay: in vivo, NMRI mice. The settings on record: 40 mg/kg; still significantly higher than in non-tumour-bearing animals. The procedure: as §1, §2
In assay [1] the test system is mice bearing the MAC16 tumour. Description: Body weight change in cachectic mice bearing the MAC16 tumour treated with alpha-trinositol (Example 1). The class given is in vivo, NMRI mice. The procedure:
Materials. Alpha-trinositol (1-D-Myo-inositol 1,2,6-triphosphate) was prepared according to U.S. Pat. No. 4,777,134. In a glass ampoule a stock solution was prepared by dissolving 1 g of alpha-trinositol in saline to a total volume of 10 ml. The stock solution was stored in a refrigerator for use within 24 hrs.
Animals. Pure strain male NMRI mice (average body weight 25 g) were transplanted with fragments of the MAC16 tumour subcutaneously into the flank by means of a trochar, selected from donor animals with established weight loss (Bibby M C et al., Characterization of transplantable adenocarcinoma in the mouse colon producing cachexia in the recipient animals. J Natl Cancer Inst 78 (1987) 539-546). Transplanted animals were given a rat and mouse breeding diet (Special Diet Services, Witham, UK) and water at lib. Weight loss was evident 10 to 12 days after tumour implantation. Just prior to the development of weight loss 24 animals were randomized into four groups (I-IV) of six animals each.
Administration of alpha-trinositol. A first experiment was started when the animals had lost about 5% of body weight. Aliquots (2.5 μl, Group I; 5 μl, Group II; 10 μl, Group III) of alpha-trinositol stock solution corresponding to doses of 10 mg/kg, 20 mg/kg, and 40 mg/kg for a 25 g animal were administered subcutaneously three times per day at 8.00, 12.00 and 16.00 hrs. The fourth group (Group IV; control) was given an intravenous injection of 10 μl of water. Body weight (FIG. 1), tumour volume (FIG. 2), and water and food intake were determined daily after the last injection.

Assay [2] relates to Angiotensin II induced chymotrypsin like activity in C2C12 myotubes. Description: Angiotensin II induced chymotrypsin-like activity in C2C12 myotubes. The class given is cell-based, murine. The settings on record: AT 100 μM. From the text: Protein degradation induced by PIF is mediated through up-regulation of the ubiquitin-proteasome pathway (Tisdale et al., 2004, Br. J. Cancer). […] A hexanoyl ester of AT (lipid soluble AT) has been produced as a slow release form, after hydrolysis by esterase.

The test system of assay [3] is 4E-BP1 associated with eIF4E. Kind of assay: Western blot after m7GTP-Sepharose extraction: 4E-BP1 associated with eIF4E. Type of assay: in vivo, NMRI mice. The settings on record: 40 mg/kg. The protocol: as §1
(§3) Western blot analysis Gastrocnemius muscle (10 mg) was homogenised in Phosphosafe™ Extraction Reagent (500 μl) and centrifuged at 15000 g for 15 min. Samples of the cytosolic proteins (5 μg) were loaded on either a 10% (mTOR, myosin, eIF4E and eIF4G) 12% (PKR, eIF2α and actin) or 15% (4E-BP1) sodium dodecylsulphate-polyacrylamide gel (SDS-PAGE) and electrophoresed at 180 V for approximately 1 h. The extent of phosphorylation of 4E-BP1, and the association of 4E-BP1 and eIF4G with eIF4E was determined by Western blotting when eIF4E was extracted from the muscle samples by m^7GTP-Sepharose 4B-affinity binding, as previously described Eley ey al., Biochem J., 2007; 407:113-20, by loading 20 μg of protein. […] Blots were scanned by a densitometer to quantify differences.

Assay [4] relates to gastrocnemius muscle protein synthesis and degradation. Kind of assay: Protein synthesis and degradation in gastrocnemius muscle of MAC16 tumour-bearing mice. The class given is in vivo, NMRI mice. The settings on record: 40 mg/kg s.c., 3 times per day; p<0.001 vs control. The procedure: as §1
Protein analysis. After 24 h the animals were terminated and the gastrocnemius muscle was removed, washed with PBS and RPMI 1640, and the release of radioactivity during incubation for 2 h in RPMI 1640 was determined. Protein bound activity was determined by homogenising the muscles in 2% perchloric acid, and determining the radioactivity in the precipitate. Protein degradation was calculated by dividing the amount of radioactivity released into the medium over a 2 h period by the specific activity of the protein-bound radioactivity. To determine protein synthesis gastrocnemius muscles were incubated for 2 h in RMPI 1640, without phenol red, in the presence of L-[2,6-^3H]phenylalanine (37 MBq), and under an atmosphere of O2/CO2 (19:1). […] The rate of protein synthesis was calculated by dividing the protein-bound radioactivity by the acid-soluble material.

Another assay has as its system myosin. Kind of assay: Western blot of gastrocnemius muscle: myosin. The class given is in vivo, NMRI mice. The settings on record: 40 mg/kg; treatment for 4 days; reduced by 90% in untreated tumour-bearing mice. The procedure:
as §1, §3
On the technique in general: In western blotting, separated proteins are transferred to a membrane and probed.

For the compound `O=P(O)(O)O[C@@H]1[C@H](OP(=O)(O)O)[C@H](O)[C@@H](O)[C@H](O)[C@H]1OP(=O)(O)O` [alpha-trinositol, 1-D-Myo-inositol 1,2,6-triphosphate], the “activity of caspase-8 in gastrocnemius muscle” value with caspase 8 is recorded as “significantly reduced”. The “activity of caspase-3 in gastrocnemius muscle” value in the assay on caspase 3 was “significantly reduced”. Besides, in assay [1] (10 mg/kg s.c. three times per day), the “anti-cachexia effect (body weight)” value is on record as “clear anti-cachexia effect”. For the same compound, the “relative weight loss versus control group” value in assay [1] (day 0 to day 5, AT group) is “half of the control group”. Also, the body weight lost in assay [1] (day 0 to day 5, AT group, s.c. three times per day (FIG. 3: 3×40 mg/kg), control lost ~4.7 g) is roughly 2.3 g. In assay [1] (day 1 (first day of treatment) to day 5, AT group, control lost 3.3 g), this compound registered a body weight lost of 1.15 g. Further, the “weight loss as fraction of the control group” value in assay [1] (day 1 to day 5, AT group) is recorded as “⅓”. In addition, the “effect on Ang II-induced chymotrypsin-like enzyme activity” value in assay [2] is “completely attenuated”. For the same compound, the “tumour-induced increase of 4E-BP1 associated with eIF4E” value in assay [3] is given as “completely attenuated”. Moreover, in assay [4], the “decrease in protein degradation in the gastrocnemius muscle” value is recorded as 20% and the “increase of protein synthesis in the gastrocnemius muscle” value amounted to 50%. For the same compound, the “myosin expression in gastrocnemius muscle” value in the assay with myosin is “returned to values at the same level as in non-tumour animals”.
